Source: patent US6737383B1, “Herbicidal oxadiazolidines” (priority 1999, dated 2004)

How the values were obtained:
soybean = assay: Test B pre/postemergence soybean; assay type: in vivo, Glycine max; conditions: Preemergence; for Plant response rating, Soybean: Rate 125 g/ha
Outline: (§1)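 Herbicidal effect was estimated by eye on a ten-point control scale after plants spent twelve to sixteen days in a greenhouse following soil or foliar treatment. Foliar sprays targeted plants at one to four leaves; all doses were formulated in a non-phytotoxic solvent with surfactant.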

cocklebur = assay: Test B pre/postemergence cocklebur; assay type: in vivo, Xanthium strumarium; conditions: Preemergence; for Plant response rating, Cocklebur: Rate 125 g/ha
Outline: as §1

pigweed = assay: Test B pre/postemergence pigweed; assay type: in vivo, Amaranthus retroflexus; conditions: Preemergence; for Plant response rating, Redroot pigweed: Rate 125 g/ha
Outline: as §1

wheat = assay: Test B pre/postemergence wheat; assay type: in vivo, Triticum aestivum; conditions: Preemergence; for Plant response rating, Wheat: Rate 125 g/ha
Outline: as §1

rape = assay: Test B pre/postemergence rape; assay type: in vivo, Brassica napus; conditions: Preemergence; for Plant response rating, Rape: Rate 125 g/ha
Outline: as §1

purple nutsedge = assay: Test B pre/postemergence purple nutsedge; assay type: in vivo, Cyperus rotundus; conditions: Preemergence; for Plant response rating, Nutsedge: Rate 125 g/ha
Outline: as §1

wild oat = assay: Test B pre/postemergence wild oat; assay type: in vivo, Avena fatua; conditions: Preemergence; for Plant response rating, Wild oats: Rate 125 g/ha
Outline: as §1

giant foxtail = assay: Test B pre/postemergence giant foxtail; assay type: in vivo, Setaria faberii; conditions: Preemergence; for Plant response rating, Giant foxtail: Rate 125 g/ha
Outline: as §1

sugar beet = assay: Test B pre/postemergence sugar beet; assay type: in vivo, Beta vulgaris; conditions: Preemergence; for Plant response rating, Sugarbeets: Rate 125 g/ha
Outline: as §1

bedstraw = assay: Test B pre/postemergence bedstraw; assay type: in vivo, Galium aparine; conditions: Preemergence; for Plant response rating, Bedstraw: Rate 125 g/ha
Outline: as §1

crabgrass = assay: Test B pre/postemergence crabgrass; assay type: in vivo, Digitaria sanguinalis; conditions: Preemergence; for Plant response rating, Crabgrass: Rate 125 g/ha
Outline: as §1

blackgrass = assay: Test B pre/postemergence blackgrass; assay type: in vivo, Alopecurus myosuroides; conditions: Preemergence; for Plant response rating, Blackgrass: Rate 125 g/ha
Outline: as §1

morningglory = assay: Test B pre/postemergence morningglory; assay type: in vivo, Ipomoea hederacea; conditions: Preemergence; for Plant response rating, Morningglory: Rate 125 g/ha
Outline: as §1

corn = assay: Test B pre/postemergence corn; assay type: in vivo, Zea mays; conditions: Preemergence; for Plant response rating, Corn: Rate 125 g/ha
Outline: as §1

velvetleaf = assay: Test B pre/postemergence velvetleaf; assay type: in vivo, Abutilon theophrasti; conditions: Preemergence; for Plant response rating, Velvetleaf: Rate 125 g/ha
Outline: as §1

surinam grass = assay: Test B pre/postemergence surinam grass; assay type: in vivo, Brachiaria decumbens; conditions: Preemergence; for Plant response rating, B. signalgrass: Rate 125 g/ha
Outline: as §1

[1] = Rate 62 g/ha, scale of 0 to 10 where 0 is no effect and 10 is complete control
[2] = scale of 0 to 10 where 0 is no effect and 10 is complete control
[3] = Rate 250 g/ha, scale 0 (no effect) to 10 (complete control)
[4] = Rate 500 g/ha, scale 0 to 10 (0 no effect, 10 complete control)

COCC(OC)n1c(=O)on(C(=O)N(c2ccccc2)C(C)C)c1=O (stereo not shown) [Compound 734]
Soybean plant response rating (soybean; [1]): 0 | Plant response rating, Soybean (soybean; [2]): 0 | Soybean plant response rating (soybean; [3]): 0 | Soybean plant response rating (soybean; [4]): 7 | Cocklebur plant response rating (cocklebur; [1]): 0 | Plant response rating, Cocklebur (cocklebur; [2]): 0 | Cocklebur plant response rating (cocklebur; [3]): 0 | Cocklebur plant response rating (cocklebur; [4]): 0 | Redroot pigweed plant response rating (pigweed; [1]): 2 | Plant response rating, Redroot pigweed (pigweed; [2]): 7 | Redroot pigweed plant response rating (pigweed; [3]): 8 | Redroot pigweed plant response rating (pigweed; [4]): 8 | Wheat plant response rating (wheat; [1]): 0 | Plant response rating, Wheat (wheat; [2]): 7 | Wheat plant response rating (wheat; [3]): 8 | Wheat plant response rating (wheat; [4]): 9 | Rape plant response rating (rape; [1]): 0 | Plant response rating, Rape (rape; [2]): 2 | Rape plant response rating (rape; [3]): 5 | Rape plant response rating (rape; [4]): 7 | Nutsedge plant response rating (purple nutsedge; [1]): 0 | Plant response rating, Nutsedge (purple nutsedge; [2]): 0 | Nutsedge plant response rating (purple nutsedge; [3]): 0 | Wild oats plant response rating (wild oat; [1]): 3 | Plant response rating, Wild oats (wild oat; [2]): 8 | Wild oats plant response rating (wild oat; [3]): 10 | Wild oats plant response rating (wild oat; [4]): 10 | Giant foxtail plant response rating (giant foxtail; [1]): 9 | Plant response rating, Giant foxtail (giant foxtail; [2]): 10 | Giant foxtail plant response rating (giant foxtail; [3]): 10 | Giant foxtail plant response rating (giant foxtail; [4]): 10 | Sugarbeets plant response rating (sugar beet; [1]): 0 | Plant response rating, Sugarbeets (sugar beet; [2]): 2 | Sugarbeets plant response rating (sugar beet; [3]): 5 | Sugarbeets plant response rating (sugar beet; [4]): 8 | Bedstraw plant response rating (bedstraw; [1]): 0 | Plant response rating, Bedstraw (bedstraw; [2]): 0 | Bedstraw plant response rating (bedstraw; [3]): 0 | Bedstraw plant response rating (bedstraw; [4]): 0 | Crabgrass plant response rating (crabgrass; [1]): 9 | Plant response rating, Crabgrass (crabgrass; [2]): 9 | Crabgrass plant response rating (crabgrass; [3]): 9 | Crabgrass plant response rating (crabgrass; [4]): 10 | Blackgrass plant response rating (blackgrass; [1]): 7 | Plant response rating, Blackgrass (blackgrass; [2]): 9 | Blackgrass plant response rating (blackgrass; [3]): 9 | Blackgrass plant response rating (blackgrass; [4]): 10 | Morningglory plant response rating (morningglory; [1]): 2 | Plant response rating, Morningglory (morningglory; [2]): 2 | Morningglory plant response rating (morningglory; [3]): 3 | Morningglory plant response rating (morningglory; [4]): 6 | Corn plant response rating (corn; [1]): 0 | Plant response rating, Corn (corn; [2]): 5 | Corn plant response rating (corn; [3]): 9 | Corn plant response rating (corn; [4]): 9 | Velvetleaf plant response rating (velvetleaf; [1]): 2 | Plant response rating, Velvetleaf (velvetleaf; [2]): 3 | Velvetleaf plant response rating (velvetleaf; [3]): 5 | Velvetleaf plant response rating (velvetleaf; [4]): 7 | B. signalgrass plant response rating (surinam grass; [1]): 9 | Plant response rating, B. signalgrass (surinam grass; [2]): 9 | B. signalgrass plant response rating (surinam grass; [3]): 9 | B. signalgrass plant response rating (surinam grass; [4]): 9

CCOC(CC)n1c(=O)on(C(=O)N(c2ccc(F)cc2)C(C)C)c1=O (stereo not shown) [Compound 742]
Plant response rating, Soybean (soybean; [2]): 0 | Soybean plant response rating (soybean; [3]): 0 | Soybean plant response rating (soybean; Rate 62 g/ha, scale 0 to 10): 0 | Soybean plant response rating (soybean; [4]): 0 | Plant response rating, Cocklebur (cocklebur; [2]): 0 | Cocklebur plant response rating (cocklebur; [3]): 0 | Cocklebur plant response rating (cocklebur; Rate 62 g/ha, scale 0 to 10): 0 | Cocklebur plant response rating (cocklebur; [4]): 0 | Plant response rating, Redroot pigweed (pigweed; [2]): 0 | Redroot pigweed plant response rating (pigweed; [3]): 0 | Redroot pigweed plant response rating (pigweed; Rate 62 g/ha, scale 0 to 10): 0 | Redroot pigweed plant response rating (pigweed; [4]): 0 | Plant response rating, Wheat (wheat; [2]): 0 | Wheat plant response rating (wheat; [3]): 0 | Wheat plant response rating (wheat; Rate 62 g/ha, scale 0 to 10): 0 | Wheat plant response rating (wheat; [4]): 0 | Plant response rating, Rape (rape; [2]): 0 | Rape plant response rating (rape; [3]): 0 | Rape plant response rating (rape; Rate 62 g/ha, scale 0 to 10): 0 | Rape plant response rating (rape; [4]): 0 | Plant response rating, Nutsedge (purple nutsedge; [2]): 0 | Nutsedge plant response rating (purple nutsedge; [3]): 0 | Nutsedge plant response rating (purple nutsedge; Rate 62 g/ha, scale 0 to 10): 0 | Nutsedge plant response rating (purple nutsedge; [4]): 0 | Plant response rating, Wild oats (wild oat; [2]): 0 | Wild oats plant response rating (wild oat; [3]): 0 | Wild oats plant response rating (wild oat; Rate 62 g/ha, scale 0 to 10): 0 | Wild oats plant response rating (wild oat; [4]): 0 | Plant response rating, Giant foxtail (giant foxtail; [2]): 0 | Giant foxtail plant response rating (giant foxtail; [3]): 0 | Giant foxtail plant response rating (giant foxtail; Rate 62 g/ha, scale 0 to 10): 0 | Giant foxtail plant response rating (giant foxtail; [4]): 0 | Plant response rating, Sugarbeets (sugar beet; [2]): 0 | Sugarbeets plant response rating (sugar beet; [3]): 0 | Sugarbeets plant response rating (sugar beet; Rate 62 g/ha, scale 0 to 10): 0 | Sugarbeets plant response rating (sugar beet; [4]): 0 | Plant response rating, Bedstraw (bedstraw; [2]): 0 | Bedstraw plant response rating (bedstraw; [3]): 0 | Bedstraw plant response rating (bedstraw; Rate 62 g/ha, scale 0 to 10): 0 | Bedstraw plant response rating (bedstraw; [4]): 0 | Plant response rating, Crabgrass (crabgrass; [2]): 0 | Crabgrass plant response rating (crabgrass; [3]): 0 | Crabgrass plant response rating (crabgrass; Rate 62 g/ha, scale 0 to 10): 0 | Crabgrass plant response rating (crabgrass; [4]): 0 | Plant response rating, Blackgrass (blackgrass; [2]): 0 | Blackgrass plant response rating (blackgrass; [3]): 0 | Blackgrass plant response rating (blackgrass; Rate 62 g/ha, scale 0 to 10): 0 | Blackgrass plant response rating (blackgrass; [4]): 0 | Plant response rating, Morningglory (morningglory; [2]): 0 | Morningglory plant response rating (morningglory; [3]): 0 | Morningglory plant response rating (morningglory; Rate 62 g/ha, scale 0 to 10): 0 | Morningglory plant response rating (morningglory; [4]): 0 | Plant response rating, Corn (corn; [2]): 0 | Corn plant response rating (corn; [3]): 0 | Corn plant response rating (corn; Rate 62 g/ha, scale 0 to 10): 0 | Corn plant response rating (corn; [4]): 0 | Plant response rating, Velvetleaf (velvetleaf; [2]): 0 | Velvetleaf plant response rating (velvetleaf; [3]): 0 | Velvetleaf plant response rating (velvetleaf; Rate 62 g/ha, scale 0 to 10): 0 | Velvetleaf plant response rating (velvetleaf; [4]): 0 | B. signalgrass plant response rating (surinam grass; [1]): 0 | Plant response rating, B. signalgrass (surinam grass; [2]): 0 | B. signalgrass plant response rating (surinam grass; [3]): 0 | B. signalgrass plant response rating (surinam grass; [4]): 0
